The structures appear in SMILES notation. Values joined by “and” are separate entries in the source; they are usually repeats but may differ in a detail not shown here. Identical values can stand only once. “Also recorded” adds a separate entry of the source.

The values that follow come from patent US20080033008A1, “COMPOSITIONS AND METHODS FOR TREATING, CONTROLLING, REDUCING, OR AMELIORATING INFECTIONS AND SEQUELAE THEREOF” (priority 2006, published 2008).

Data set [1] in a line: Pupillary diameter measurement, rabbit paracentesis model. Format: in vivo. Particulars: raw data per eye; for Diameter (mm) T2: −5 min: 5 min before the first paracentesis; for Diameter (mm) T3: +115 min: 5 min before the second paracentesis; for Diameter (mm) T1: −180 min: −180 min (basal). The procedure: (§1) Each rabbit was placed in a restraint device and tagged with the alphanumeric code. The formulations were instilled (50 μl) into the conjunctival sac of both eyes 180, 120, 90 and 30 min before the first paracentesis; then 15, 30, 90 min after the first paracentesis. To perform the first paracentesis the animals were anaesthetized by intraveneous injection of 5 mg/kg Zoletil® (Virbac; 2.5 mg/kg tiletamine HCl and 2.5 mg/kg zolazepam HCl) and one drop of local anesthetic (Novesina®, Novartis) was administered to the eye. Anterior chamber paracentesis was performed with a 26 G needle attached to a tuberculin syringe; the needle was introduced into the anterior chamber through the cornea, taking care not to damage the tissues. Two hours after the first paracentesis, the animals were sacrificed with 0.4 ml Tanax® (Intervet International B.V.) and the second paracentesis was performed. About 100 μl of aqueous humor were removed at the second paracentesis. Aqueous humor was immediately split in four aliquots and stored at −80° C. until analysis. Then both eyes were enucleated and the iris-ciliary body was carefully excised, placed in polypropylene tubes, and stored at −80° C. until analysis.
The pupillary diameter of both eyes was measured with a Castroviejo caliper 180 min and 5 min before the first paracentesis and 5 min before the second paracentesis.

Data set [2] in a line: Very preliminary data (not shown) on side effects of corticosteroids.
The test system of data set [3] is Myeloperoxidase (MPO). The data set can be described thus: Myeloperoxidase (MPO) activity in iris-ciliary body, rabbit paracentesis model. Format: in vivo. Particulars: iris-ciliary body samples collected after the second paracentesis, raw data per eye (DX/SX). The procedure:
3.9 g of NaH2PO4 2H2O were dissolved in a volumetric flask to 500 ml with water. The pH was adjusted to pH=6 with 3N NaOH.
0.5 g of hexa-decyl-trimethyl-ammonium bromide was dissolved in 100 ml phosphate buffer.
The solution was prepared freshly. Ten microliters of H2O2 (30 wt. %) were diluted to 1 ml with water (solution A). 7.5 mg o-dianisidine 2HCl were dissolved in 45 ml of phosphate buffer and 75 μl of solution A were added.
(§2) Each rabbit was placed in a restraint device and tagged with the alphanumeric code. The formulations were instilled (50 μl) into the conjunctival sac of both eyes 180, 120, 90 and 30 min before the first paracentesis; then 15, 30, 90 min after the first paracentesis. […]
The activity of MPO was measured as previously described by Williams et al. The iris-ciliary bodies were carefully dried, weighed and immersed in 1 ml of hexa-decyl-trimethyl-ammonium bromide solution. […] The change in absorbance at 460 nm was continuously monitored for 5 min by a spectrophotometer (UV/Vis Spectrometer Lambda EZ 201; Perkin Elmer). The slope of the line (Δ/min) was determined for each sample and used to calculate the number of units of MPO in the tissue as follows:
Values were expressed as units of MPO/g of tissue.

Data set [4] can be described thus: Rabbit paracentesis model of ocular inflammation, overall conclusions. It is filed as in vivo. Particulars: 0.1%, 0.5% and 1% topical formulations; preliminary conclusions; listed as BOL-303242-X.
Description: Inflammatory processes are multidimensional in origin, and are characterized by complex cellular and molecular events involving numerous components all of which have not been identified. Prostaglandins are among these mediators and play an important role in certain forms of ocular inflammation. Paracentesis of the anterior chamber in the rabbit eye induces inflammatory reaction due to the disruption of the blood-aqueous barrier (“BAB”), which is mediated, at least in part, by prostaglandin E2 [References 1-3 below]. Intraocular or topical administration of PGE2 disrupts the BAB. [Reference 4, below] The treatment schedule adopted in this study was similar to the clinical NSAIDs (Ocufen) treatment schedule used by surgeons for patients before cataract surgery.
as §2
Pupillary diameter, PGE2, protein, PMN, and MPO were expressed as mean ±SEM. […] Clinical score was expressed as % of eyes and the statistical analysis was performed using Kruskal-Wallis followed by a Dunn post hoc test. […]

The nature of data set [5]: Clinical evaluation by slit lamp (clinical score), rabbit paracentesis model. It is filed as in vivo. The protocol: as §1
The clinical evaluation of both eyes was performed by a slit lamp (4179-T; Sbisa, Italy) at 180 min and 5 min before the first paracentesis and 5 min before the second paracentesis. The clinical score was assigned according to the following scheme:
1=discrete dilatation of iris and conjunctival vessels
2=moderate dilatation of iris and conjunctival vessels
3=intense iridal hyperemia with flare in the anterior chamber
4=intense iridal hyperemia with flare in the anterior chamber and presence of fibrinous exudates.

The subject of data set [6] is neovascularization and angiogenesis. The conditions noted are these: X. Xin et al., J. Biol. Chem. 274:9116-9121 (1999); cited from earlier work.

With `Cc1ccc2c(NCC(O)(CC(C)(C)c3cc(F)cc4c3OCC4)C(F)(F)F)cccc2n1` (centres unmarked) [BOL], the “Diameter (mm) T2: −5 min” value in data set [1] (0.1% topical) was 6.5 mm and 7.0 mm and 7.5 mm; in data set [1] (0.5% topical) it was 8.0 mm and 7.0 mm and 7.5 mm; in data set [1] (1% topical), 6.0 mm and 6.5 mm and 7.0 mm. Further, the “Diameter (mm) T3: +115 min” value in data set [1] (0.1% topical) was 5.0 mm and 6.0 mm and 6.5 mm and 5.5 mm; in data set [1] (0.5% topical) it was 6.5 mm and 6.0 mm and 7.0 mm; in data set [1] (1% topical), 5.5 mm and 5.0 mm and 6.0 mm. The “Diameter (mm) T1: −180 min” value is 6.5 mm and 7.0 mm and 7.5 mm in data set [1] (0.1% topical); 8.0 mm and 7.0 mm and 7.5 mm in data set [1] (0.5% topical); 6.0 mm and 6.5 mm in data set [1] (1% topical). Further, in data set [2], the “Side effects of corticosteroids” value is “does not have some of the side effects of corticosteroids”. Also, the MPO in data set [3] (0.1% treatment) is 1.00 Unit/g and 0.61 Unit/g and 0.65 Unit/g; in data set [3] (0.5% treatment), 0.85 Unit/g and 0.93 Unit/g and 0.79 Unit/g and 0.75 Unit/g and 0.74 Unit/g and 0.54 Unit/g and 0.58 Unit/g. Moreover, the “Anti-inflammatory activity in the rabbit paracentesis model (conclusion)” value in data set [4] is “active in this model; also recorded: as effective an anti-inflammatory drug as some of the commonly accepted prior-art steroids or NSAID”. Besides, the “Clinical score expressed as percentage of eyes, Score (%) 2” value in data set [5] (0.1% topical, +115 min) came out at 75%; in data set [5] (1% topical, +115 min), 100%. For the same compound, the “Clinical score expressed as percentage of eyes, Score (%) 3” value in data set [5] (0.1% topical, +115 min) was 25%. The “Clinical score expressed as percentage of eyes, Score (%) 0” value in data set [5] (0.1% topical, −5 min) is 100%; in data set [5] (0.1% topical, −180 min (basal)), 100%; in data set [5] (0.5% topical, −5 min) it was 100%; in data set [5] (0.5% topical, −180 min (basal)), 100%; in data set [5] (1% topical, −5 min), 100%; in data set [5] (1% topical, −180 min (basal)) it was 100%.
`CC(C(=O)O)c1ccc(-c2ccccc2)c(F)c1` (centres unmarked) [F, flurbiprofen]: in data set [1] (0.03% topical), the “Diameter (mm) T2: −5 min” value was 6.0 mm and 6.5 mm and 7.0 mm and 5.5 mm; the “Diameter (mm) T3: +115 min” value was 4.0 mm and 3.5 mm and 5.5 mm and 5.0 mm and 4.5 mm and 6.0 mm; the “Diameter (mm) T1: −180 min” value is 5.0 mm and 7.0 mm and 6.0 mm and 5.5 mm. In addition, the “Clinical score expressed as percentage of eyes, Score (%) 2” value in data set [5] (0.03% topical, +115 min) was 100%. Besides, in data set [5] (0.03% topical, −5 min), the “Clinical score expressed as percentage of eyes, Score (%) 0” value is reported as 100%. The “Clinical score expressed as percentage of eyes, Score (%) 0” value in data set [5] (0.03% topical, −180 min (basal)) is reported as 100%.
`CCCCCC=CC=C1C(=O)C=C[C@@H]1CC=CCCCC(=O)O` [15-deoxy-Δ-12,14-prostaglandin J2]: in data set [6], the “Neovascularization and angiogenesis in the rat cornea” value is “inhibit neovascularization and angiogenesis”.
For the compound `CCOC(=O)O[C@]1(C(=O)OCCl)CC[C@H]2[C@@H]3CCC4=CC(=O)C=C[C@]4(C)[C@H]3[C@@H](O)C[C@@]21C` [LE, loteprednol etabonate], in data set [1] (0.5% topical), the “Diameter (mm) T2: −5 min” value is 6.0 mm and 6.5 mm; the “Diameter (mm) T3: +115 min” value was 4.5 mm and 5.0 mm and 5.5 mm and 6.0 mm; the “Diameter (mm) T1: −180 min” value is 6.0 mm and 6.5 mm. For the same compound, in data set [5] (0.5% topical, +115 min), the “Clinical score expressed as percentage of eyes, Score (%) 1” value was found to be 75% and the “Clinical score expressed as percentage of eyes, Score (%) 2” value is on record as 25%. In addition, the “Clinical score expressed as percentage of eyes, Score (%) 0” value in data set [5] (0.5% topical, −5 min) was 100%. The “Clinical score expressed as percentage of eyes, Score (%) 0” value in data set [5] (0.5% topical, −180 min (basal)) is reported as 100%.
As to `C[C@@H]1C[C@H]2[C@@H]3CCC4=CC(=O)C=C[C@]4(C)[C@@]3(F)[C@@H](O)C[C@]2(C)[C@@]1(O)C(=O)CO` [Dex, dexamethasone], in data set [1] (0.1% topical), the “Diameter (mm) T2: −5 min” value is 5.5 mm and 6.5 mm and 6.0 mm and 7.0 mm and 7.5 mm; the “Diameter (mm) T3: +115 min” value was 5.5 mm and 6.0 mm and 4.5 mm and 5.0 mm and 6.5 mm; the “Diameter (mm) T1: −180 min” value was 6.0 mm and 7.0 mm and 5.5 mm and 6.5 mm. Also, in data set [5] (0.1% topical, +115 min), the “Clinical score expressed as percentage of eyes, Score (%) 1” value worked out at 75% and the “Clinical score expressed as percentage of eyes, Score (%) 3” value is 25%. In addition, in data set [5] (0.1% topical, −5 min), the “Clinical score expressed as percentage of eyes, Score (%) 0” value was found to be 75% and the “Clinical score expressed as percentage of eyes, Score (%) 1” value came to 25%. The “Clinical score expressed as percentage of eyes, Score (%) 0” value in data set [5] (0.1% topical, −180 min (basal)) is 100%.
